Values of other authors as cited in PMC9851200, “Multiparameter phenotypic screening for endogenous TFEB and TFE3 translocation identifies novel chemical series modulating lysosome function” (Autophagy, 2022).

Assays:
Design in all cases: method as in original PKIS2 published data
[1] = biological target: T1, kinases (KINOMEscan panel) (Homo sapiens, UniProt O14936); conditions: kinase CASK; Published KINOMEscan; ref original PKIS2 published data; cited from earlier work
T1 sequence (O14936 1-926): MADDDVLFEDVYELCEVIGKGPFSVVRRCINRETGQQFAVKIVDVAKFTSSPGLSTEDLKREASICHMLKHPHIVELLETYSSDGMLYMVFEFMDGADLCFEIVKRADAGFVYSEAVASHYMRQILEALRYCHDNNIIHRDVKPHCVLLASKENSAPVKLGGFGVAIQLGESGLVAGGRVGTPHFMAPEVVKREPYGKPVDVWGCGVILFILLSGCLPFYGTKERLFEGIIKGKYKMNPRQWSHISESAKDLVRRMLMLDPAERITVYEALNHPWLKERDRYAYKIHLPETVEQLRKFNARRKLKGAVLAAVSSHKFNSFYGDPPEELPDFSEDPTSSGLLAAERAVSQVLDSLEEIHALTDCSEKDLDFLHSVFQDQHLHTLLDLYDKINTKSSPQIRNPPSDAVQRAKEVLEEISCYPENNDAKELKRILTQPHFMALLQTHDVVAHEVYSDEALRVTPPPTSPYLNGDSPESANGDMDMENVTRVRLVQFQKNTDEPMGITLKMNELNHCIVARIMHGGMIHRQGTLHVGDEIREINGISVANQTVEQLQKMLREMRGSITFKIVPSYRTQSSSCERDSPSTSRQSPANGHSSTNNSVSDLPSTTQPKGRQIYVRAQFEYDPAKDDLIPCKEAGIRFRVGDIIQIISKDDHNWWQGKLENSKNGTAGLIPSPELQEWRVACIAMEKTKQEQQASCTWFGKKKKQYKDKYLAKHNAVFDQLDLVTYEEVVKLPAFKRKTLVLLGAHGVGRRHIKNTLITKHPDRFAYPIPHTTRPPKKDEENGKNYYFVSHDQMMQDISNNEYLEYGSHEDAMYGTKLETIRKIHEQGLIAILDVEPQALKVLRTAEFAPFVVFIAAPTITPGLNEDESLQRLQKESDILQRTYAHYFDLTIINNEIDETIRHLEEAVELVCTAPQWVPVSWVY

[2] = biological target: kinases (KINOMEscan panel) (Homo sapiens, UniProt O95747); conditions: Published KINOMEscan; ref original PKIS2 published data; cited from earlier work
Chain of kinases (KINOMEscan panel) (Homo sapiens, UniProt O95747) (O95747 whole entry): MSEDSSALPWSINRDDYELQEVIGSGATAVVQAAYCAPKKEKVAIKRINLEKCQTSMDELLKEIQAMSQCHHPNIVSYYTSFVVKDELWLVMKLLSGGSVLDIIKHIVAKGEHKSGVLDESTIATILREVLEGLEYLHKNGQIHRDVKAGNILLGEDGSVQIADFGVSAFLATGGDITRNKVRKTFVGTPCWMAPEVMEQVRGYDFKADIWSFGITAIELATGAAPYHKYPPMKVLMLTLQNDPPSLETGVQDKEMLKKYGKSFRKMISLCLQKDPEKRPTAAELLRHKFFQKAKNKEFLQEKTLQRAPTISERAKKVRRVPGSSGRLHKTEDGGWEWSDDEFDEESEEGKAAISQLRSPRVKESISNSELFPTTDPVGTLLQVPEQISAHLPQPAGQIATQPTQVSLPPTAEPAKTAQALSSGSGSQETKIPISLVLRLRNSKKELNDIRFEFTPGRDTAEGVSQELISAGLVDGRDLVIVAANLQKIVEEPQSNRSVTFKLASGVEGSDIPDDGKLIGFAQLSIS

[3] = biological target: kinases (KINOMEscan panel) (Homo sapiens, UniProt P15056); conditions: BRAF; Published KINOMEscan; ref original PKIS2 published data; cited from earlier work
Chain of kinases (KINOMEscan panel) (Homo sapiens, UniProt P15056) (P15056 whole entry): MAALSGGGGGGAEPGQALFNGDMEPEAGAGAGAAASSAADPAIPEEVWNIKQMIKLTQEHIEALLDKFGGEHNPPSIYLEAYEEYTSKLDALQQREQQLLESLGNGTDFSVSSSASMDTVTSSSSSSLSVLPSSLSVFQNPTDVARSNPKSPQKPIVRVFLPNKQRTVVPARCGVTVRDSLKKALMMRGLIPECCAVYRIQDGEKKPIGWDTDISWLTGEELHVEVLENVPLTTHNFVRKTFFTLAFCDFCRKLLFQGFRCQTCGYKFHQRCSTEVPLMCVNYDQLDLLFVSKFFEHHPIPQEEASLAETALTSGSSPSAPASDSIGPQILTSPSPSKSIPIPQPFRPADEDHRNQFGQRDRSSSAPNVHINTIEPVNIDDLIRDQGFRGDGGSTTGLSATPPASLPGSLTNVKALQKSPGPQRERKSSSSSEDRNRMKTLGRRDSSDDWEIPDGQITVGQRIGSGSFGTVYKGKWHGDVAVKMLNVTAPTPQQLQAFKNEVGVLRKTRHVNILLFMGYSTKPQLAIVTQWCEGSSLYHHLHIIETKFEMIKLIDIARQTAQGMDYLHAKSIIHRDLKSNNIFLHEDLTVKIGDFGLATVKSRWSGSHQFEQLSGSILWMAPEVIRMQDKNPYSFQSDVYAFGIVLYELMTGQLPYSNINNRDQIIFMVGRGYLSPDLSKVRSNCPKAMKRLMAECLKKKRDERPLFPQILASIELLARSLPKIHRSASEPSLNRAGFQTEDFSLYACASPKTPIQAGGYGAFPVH

[4] = biological target: T2, kinases (KINOMEscan panel) (Homo sapiens, UniProt Q04771); conditions: ACVR1; Published KINOMEscan; ref original PKIS2 published data; cited from earlier work
T2 sequence (Q04771 21-509): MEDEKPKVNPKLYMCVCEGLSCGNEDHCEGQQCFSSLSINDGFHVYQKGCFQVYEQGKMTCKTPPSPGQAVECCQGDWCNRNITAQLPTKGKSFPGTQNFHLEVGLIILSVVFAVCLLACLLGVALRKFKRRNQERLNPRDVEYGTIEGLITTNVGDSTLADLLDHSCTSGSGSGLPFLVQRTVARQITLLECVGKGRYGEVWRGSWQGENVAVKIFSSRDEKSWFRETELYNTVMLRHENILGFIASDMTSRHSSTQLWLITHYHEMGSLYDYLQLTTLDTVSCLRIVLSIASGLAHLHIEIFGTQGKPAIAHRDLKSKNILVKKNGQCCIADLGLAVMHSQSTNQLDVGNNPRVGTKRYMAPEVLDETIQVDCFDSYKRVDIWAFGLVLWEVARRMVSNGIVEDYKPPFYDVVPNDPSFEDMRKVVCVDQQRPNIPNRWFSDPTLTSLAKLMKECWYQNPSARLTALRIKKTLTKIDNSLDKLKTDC

[5] = biological target: kinases (KINOMEscan panel) (Homo sapiens, UniProt Q13177); conditions: PAK2; Published KINOMEscan; ref original PKIS2 published data; cited from earlier work
Chain of kinases (KINOMEscan panel) (Homo sapiens, UniProt Q13177) (Q13177 whole entry): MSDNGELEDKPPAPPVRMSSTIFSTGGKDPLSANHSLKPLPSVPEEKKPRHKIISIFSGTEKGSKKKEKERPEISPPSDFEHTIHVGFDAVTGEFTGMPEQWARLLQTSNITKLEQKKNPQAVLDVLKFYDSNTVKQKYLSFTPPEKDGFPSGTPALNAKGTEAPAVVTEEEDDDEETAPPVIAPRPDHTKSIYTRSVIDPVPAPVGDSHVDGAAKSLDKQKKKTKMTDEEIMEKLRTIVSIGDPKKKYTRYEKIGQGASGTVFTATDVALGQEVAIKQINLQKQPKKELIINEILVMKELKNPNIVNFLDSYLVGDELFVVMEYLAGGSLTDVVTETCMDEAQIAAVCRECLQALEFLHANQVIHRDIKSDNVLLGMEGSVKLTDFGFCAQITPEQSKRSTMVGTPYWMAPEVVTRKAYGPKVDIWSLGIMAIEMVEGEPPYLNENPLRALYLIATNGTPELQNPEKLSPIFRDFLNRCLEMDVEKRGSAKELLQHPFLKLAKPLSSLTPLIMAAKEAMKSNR

[6] = biological target: kinases (KINOMEscan panel) (Homo sapiens, UniProt Q14680); conditions: kinase MELK; Published KINOMEscan; ref original PKIS2 published data; cited from earlier work
Chain of kinases (KINOMEscan panel) (Homo sapiens, UniProt Q14680) (Q14680 whole entry): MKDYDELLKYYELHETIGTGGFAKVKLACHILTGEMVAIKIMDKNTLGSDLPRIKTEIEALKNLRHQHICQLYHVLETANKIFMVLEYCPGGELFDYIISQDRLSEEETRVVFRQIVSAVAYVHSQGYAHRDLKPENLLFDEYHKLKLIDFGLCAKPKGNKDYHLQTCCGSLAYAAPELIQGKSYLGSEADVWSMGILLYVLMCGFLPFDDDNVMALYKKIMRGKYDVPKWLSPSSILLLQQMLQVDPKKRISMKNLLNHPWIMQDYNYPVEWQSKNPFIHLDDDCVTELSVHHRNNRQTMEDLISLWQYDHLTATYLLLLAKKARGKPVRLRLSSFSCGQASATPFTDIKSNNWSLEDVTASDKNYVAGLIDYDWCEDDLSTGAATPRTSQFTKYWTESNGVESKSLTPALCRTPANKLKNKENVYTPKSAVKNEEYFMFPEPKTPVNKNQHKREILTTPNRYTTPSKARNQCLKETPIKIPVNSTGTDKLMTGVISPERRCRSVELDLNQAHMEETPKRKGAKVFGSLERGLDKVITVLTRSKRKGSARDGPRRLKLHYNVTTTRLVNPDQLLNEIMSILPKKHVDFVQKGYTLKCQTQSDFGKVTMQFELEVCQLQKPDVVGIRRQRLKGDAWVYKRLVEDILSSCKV

[7] = biological target: T3, kinases (KINOMEscan panel) (Homo sapiens, UniProt Q9H2K8); conditions: kinase TAOK3; Published KINOMEscan; ref original PKIS2 published data; cited from earlier work
T3 sequence (Q9H2K8 1-898): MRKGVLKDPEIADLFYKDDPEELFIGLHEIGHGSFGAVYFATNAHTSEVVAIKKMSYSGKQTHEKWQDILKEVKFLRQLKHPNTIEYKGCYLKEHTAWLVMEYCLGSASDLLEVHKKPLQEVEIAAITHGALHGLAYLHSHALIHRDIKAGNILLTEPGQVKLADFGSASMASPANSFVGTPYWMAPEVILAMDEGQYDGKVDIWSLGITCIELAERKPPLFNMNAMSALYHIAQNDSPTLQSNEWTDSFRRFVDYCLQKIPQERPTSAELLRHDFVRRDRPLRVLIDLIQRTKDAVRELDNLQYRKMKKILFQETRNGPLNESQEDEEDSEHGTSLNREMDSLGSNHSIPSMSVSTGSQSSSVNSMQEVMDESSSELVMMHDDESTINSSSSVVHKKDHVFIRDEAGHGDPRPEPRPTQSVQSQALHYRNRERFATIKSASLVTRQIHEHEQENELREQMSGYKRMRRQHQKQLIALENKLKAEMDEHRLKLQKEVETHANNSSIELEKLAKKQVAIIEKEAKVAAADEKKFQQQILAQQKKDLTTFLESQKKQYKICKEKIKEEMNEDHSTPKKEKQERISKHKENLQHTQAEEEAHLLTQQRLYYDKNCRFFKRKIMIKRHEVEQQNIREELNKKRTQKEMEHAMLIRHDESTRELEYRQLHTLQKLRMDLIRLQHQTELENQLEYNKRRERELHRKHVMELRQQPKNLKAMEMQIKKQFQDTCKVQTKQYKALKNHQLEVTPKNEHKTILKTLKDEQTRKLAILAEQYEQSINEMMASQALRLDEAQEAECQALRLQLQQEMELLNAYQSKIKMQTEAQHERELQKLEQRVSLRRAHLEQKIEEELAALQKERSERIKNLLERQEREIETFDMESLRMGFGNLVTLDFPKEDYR

Cc1cccc(-c2nc(Nc3ccncc3)c3ccccc3n2)n1 [NK215]
KINOMEscan CASK [1]: 0
KINOMEscan OSXR1 [2]: 0
KINOMEscan BRAF [3]: 0
KINOMEscan ACVR1 [4]: 15
KINOMEscan PAK2 [5]: 0
KINOMEscan MELK [6]: 11
KINOMEscan TAOK3 [7]: 0
